This is an account of results in ChEMBL document CHEMBL3779843, “Discovery of a Potent Class I Protein Arginine Methyltransferase Fragment Inhibitor” (J Med Chem, 2016).

For orientation: IC50 means the point on the concentration scale where inhibition reaches its midpoint. For orientation: Kd means the equilibrium constant for the complex coming apart.

The source made the active and inactive calls. The calls are words filed in the database; no cut-off is given here.

Test [1] concerns the target T1, Histone-arginine methyltransferase CARM1 (Homo sapiens, UniProt Q86X55).
T1 sequence (Q86X55 whole entry): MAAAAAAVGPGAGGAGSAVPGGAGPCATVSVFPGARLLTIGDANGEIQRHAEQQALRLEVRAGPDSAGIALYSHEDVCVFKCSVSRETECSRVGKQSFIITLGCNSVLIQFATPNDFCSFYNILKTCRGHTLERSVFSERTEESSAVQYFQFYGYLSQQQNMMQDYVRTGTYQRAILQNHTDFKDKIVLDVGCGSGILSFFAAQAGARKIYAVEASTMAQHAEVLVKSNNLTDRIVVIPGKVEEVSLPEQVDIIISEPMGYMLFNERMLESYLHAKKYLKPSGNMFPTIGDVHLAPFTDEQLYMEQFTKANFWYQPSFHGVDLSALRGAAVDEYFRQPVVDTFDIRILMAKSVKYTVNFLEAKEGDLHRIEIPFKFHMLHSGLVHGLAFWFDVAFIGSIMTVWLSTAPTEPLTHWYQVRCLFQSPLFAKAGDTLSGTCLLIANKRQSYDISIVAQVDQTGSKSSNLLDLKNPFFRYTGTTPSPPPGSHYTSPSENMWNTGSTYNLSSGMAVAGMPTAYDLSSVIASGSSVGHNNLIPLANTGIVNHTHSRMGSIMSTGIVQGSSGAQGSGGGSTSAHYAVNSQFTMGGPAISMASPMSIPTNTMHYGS
Kind of test: (§1) Inhibition of CARM1 (unknown origin) using 24 residues of biotin labelled histone4 substrate and tritiated 3H-S-adenosylmethionine by scintillation proximity assay. In general terms: SPA uses beads or plates that emit light when radiolabelled molecules are held near them.

The target of test [2] is T2, Protein arginine N-methyltransferase 6 (Homo sapiens, UniProt Q96LA8). The test can be described thus: Inhibition of N-terminal hexa-His tagged human PRMT6 expressed in Sf9 cells using 24 residues of biotin labelled histone4 substrate and tritiated 3H-S-adenosylmethionine by scintillation proximity assay.
Test [3] has as its target Protein arginine N-methyltransferase 1 (Homo sapiens, UniProt Q99873). Kind of test: Inhibition of human PRMT1 using 24 residues of biotin labelled histone4 substrate and tritiated 3H-S-adenosylmethionine by scintillation proximity assay.
Test [4] has as its target Protein arginine N-methyltransferase 3 (Homo sapiens, UniProt O60678). The test can be described thus: Inhibition of human PRMT3 using 24 residues of biotin labelled histone4 substrate and tritiated 3H-S-adenosylmethionine by scintillation proximity assay.
In test [5] the target is T1, Histone-arginine methyltransferase CARM1. The test can be described thus: Inhibition of human PRMT4 using 24 residues of biotin labelled histone4 substrate and tritiated 3H-S-adenosylmethionine by scintillation proximity assay.
The target in test [6] is Protein arginine N-methyltransferase 5 (Homo sapiens, UniProt O14744). Kind of test: Inhibition of human PRMT5 using 24 residues of biotin labelled histone4 substrate and tritiated 3H-S-adenosylmethionine by scintillation proximity assay.
For test [7], the target named is T3, Protein arginine N-methyltransferase 7 (Homo sapiens, UniProt Q9NVM4).
T3 sequence (Q9NVM4 whole entry): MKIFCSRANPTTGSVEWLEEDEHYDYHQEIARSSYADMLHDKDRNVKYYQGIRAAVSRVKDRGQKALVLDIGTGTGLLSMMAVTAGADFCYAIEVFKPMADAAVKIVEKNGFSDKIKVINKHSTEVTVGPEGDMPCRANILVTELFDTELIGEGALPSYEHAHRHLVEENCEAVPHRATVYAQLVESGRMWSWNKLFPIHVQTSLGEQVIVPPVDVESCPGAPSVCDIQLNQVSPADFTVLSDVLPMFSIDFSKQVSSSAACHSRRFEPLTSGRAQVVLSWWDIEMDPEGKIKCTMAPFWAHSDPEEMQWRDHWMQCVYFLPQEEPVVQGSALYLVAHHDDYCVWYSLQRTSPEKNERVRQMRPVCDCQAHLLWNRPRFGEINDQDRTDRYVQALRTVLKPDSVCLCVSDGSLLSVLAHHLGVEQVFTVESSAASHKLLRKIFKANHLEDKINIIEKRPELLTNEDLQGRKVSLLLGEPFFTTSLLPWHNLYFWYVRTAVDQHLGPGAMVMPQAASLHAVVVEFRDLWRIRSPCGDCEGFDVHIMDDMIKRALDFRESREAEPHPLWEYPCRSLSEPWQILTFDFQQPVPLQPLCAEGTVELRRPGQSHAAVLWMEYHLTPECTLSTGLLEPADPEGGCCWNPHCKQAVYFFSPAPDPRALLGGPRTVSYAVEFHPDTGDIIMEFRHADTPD
Kind of test: Inhibition of human PRMT7 using 24 residues of biotin labelled histone4 substrate and tritiated 3H-S-adenosylmethionine by scintillation proximity assay.

The target in test [8] is Protein arginine N-methyltransferase 8 (Homo sapiens, UniProt Q9NR22). The test can be described thus: Inhibition of human PRMT8 using 24 residues of biotin labelled histone4 substrate and tritiated 3H-S-adenosylmethionine by scintillation proximity assay.
The target of test [9] is T4, Histone-arginine methyltransferase CARM1 (Homo sapiens) (UniProt Q86X55).
T4 sequence (whole entry): T1 sequence (Q86X55 whole entry)
The test is described as §1.

Test [10] addresses T1, Histone-arginine methyltransferase CARM1. The test can be described thus: Inhibition of GST-tagged CARM1 (unknown origin) using tritiated S-adenosylmethionine as substrate at 6 nM by methylation- based filter assay.
Test [11] has as its target Protein arginine N-methyltransferase 6 (Homo sapiens, UniProt Q96LA8, L267E). The test can be described thus: Inhibition of PRMT6 L267E mutant (unknown origin) using 24 residues of biotin labelled histone4 substrate and tritiated 3H-S-adenosylmethionine by scintillation proximity assay.
The target of test [12] is T2, Protein arginine N-methyltransferase 6. Kind of test: Inhibition of FLAG-tagged human PRMT6 expressed in HEK293 cells assessed as reduction in H3R2 global methylation incubated for 20 hrs by Western blot method. The format is cell-based. A general note: A western blot detects proteins with antibodies after separation by electrophoresis.
For test [13] the target is unchanged. Kind of test: Binding affinity to Inhibition of N-terminal hexa-His tagged human PRMT6 expressed in Sf9 cells by ITC method. A general note: ITC needs no label: the signal is the heat of the interaction.

Sequence of Protein arginine N-methyltransferase 3 (O60678 whole entry): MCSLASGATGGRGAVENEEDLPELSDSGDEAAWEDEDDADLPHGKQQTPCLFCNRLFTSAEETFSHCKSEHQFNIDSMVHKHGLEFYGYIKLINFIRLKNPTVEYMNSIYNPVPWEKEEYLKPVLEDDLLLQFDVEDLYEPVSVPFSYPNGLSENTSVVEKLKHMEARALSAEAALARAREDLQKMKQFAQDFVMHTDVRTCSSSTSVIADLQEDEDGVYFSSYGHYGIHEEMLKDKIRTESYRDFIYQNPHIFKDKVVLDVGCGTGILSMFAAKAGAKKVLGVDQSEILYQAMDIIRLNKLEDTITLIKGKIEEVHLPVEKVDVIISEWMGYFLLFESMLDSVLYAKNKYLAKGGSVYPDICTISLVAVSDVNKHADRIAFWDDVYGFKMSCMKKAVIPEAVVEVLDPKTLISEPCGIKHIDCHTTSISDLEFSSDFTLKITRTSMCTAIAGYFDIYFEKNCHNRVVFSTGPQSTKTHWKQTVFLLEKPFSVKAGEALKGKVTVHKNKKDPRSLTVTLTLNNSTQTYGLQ
Sequence of Protein arginine N-methyltransferase 5 (O14744 whole entry): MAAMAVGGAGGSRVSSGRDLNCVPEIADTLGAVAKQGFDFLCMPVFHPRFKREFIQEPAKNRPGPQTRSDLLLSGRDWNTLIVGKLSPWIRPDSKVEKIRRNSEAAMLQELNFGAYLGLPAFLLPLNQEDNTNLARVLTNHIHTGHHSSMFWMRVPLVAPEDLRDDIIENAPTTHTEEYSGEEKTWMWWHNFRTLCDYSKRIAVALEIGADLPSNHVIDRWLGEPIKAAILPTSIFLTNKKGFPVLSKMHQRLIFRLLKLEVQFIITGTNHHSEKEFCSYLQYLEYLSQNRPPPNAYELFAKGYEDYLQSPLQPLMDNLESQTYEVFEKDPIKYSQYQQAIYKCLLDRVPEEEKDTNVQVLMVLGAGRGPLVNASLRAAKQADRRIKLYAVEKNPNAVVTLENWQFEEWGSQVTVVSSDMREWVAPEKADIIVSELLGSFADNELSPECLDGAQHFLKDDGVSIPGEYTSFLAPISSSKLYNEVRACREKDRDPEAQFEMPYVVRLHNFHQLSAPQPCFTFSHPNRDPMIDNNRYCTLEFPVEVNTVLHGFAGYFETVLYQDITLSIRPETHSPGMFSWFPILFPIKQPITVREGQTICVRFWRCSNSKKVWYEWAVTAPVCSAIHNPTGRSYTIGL
T2 sequence (Q96LA8 whole entry): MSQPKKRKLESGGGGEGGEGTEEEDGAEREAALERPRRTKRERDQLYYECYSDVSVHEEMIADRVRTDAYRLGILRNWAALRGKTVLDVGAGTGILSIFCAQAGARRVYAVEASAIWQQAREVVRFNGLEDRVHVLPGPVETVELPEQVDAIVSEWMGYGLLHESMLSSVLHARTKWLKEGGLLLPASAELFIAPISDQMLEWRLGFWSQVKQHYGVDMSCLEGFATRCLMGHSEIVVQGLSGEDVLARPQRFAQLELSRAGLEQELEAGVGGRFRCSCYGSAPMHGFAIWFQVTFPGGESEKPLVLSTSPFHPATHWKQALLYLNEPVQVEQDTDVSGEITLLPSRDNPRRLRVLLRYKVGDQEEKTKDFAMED
Sequence of Protein arginine N-methyltransferase 8 (Q9NR22 whole entry): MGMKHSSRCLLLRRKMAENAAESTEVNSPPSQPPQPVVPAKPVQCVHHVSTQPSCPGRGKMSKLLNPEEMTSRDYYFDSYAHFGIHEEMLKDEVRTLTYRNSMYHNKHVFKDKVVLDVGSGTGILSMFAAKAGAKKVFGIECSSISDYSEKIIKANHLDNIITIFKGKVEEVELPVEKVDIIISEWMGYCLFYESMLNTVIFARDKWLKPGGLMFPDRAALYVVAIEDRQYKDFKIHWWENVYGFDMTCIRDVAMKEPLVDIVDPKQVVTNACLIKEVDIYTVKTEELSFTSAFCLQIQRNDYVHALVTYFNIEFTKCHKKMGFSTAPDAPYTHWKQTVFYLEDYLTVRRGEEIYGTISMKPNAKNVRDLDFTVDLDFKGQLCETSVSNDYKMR
Sequence of Protein arginine N-methyltransferase 1 (Q99873 whole entry): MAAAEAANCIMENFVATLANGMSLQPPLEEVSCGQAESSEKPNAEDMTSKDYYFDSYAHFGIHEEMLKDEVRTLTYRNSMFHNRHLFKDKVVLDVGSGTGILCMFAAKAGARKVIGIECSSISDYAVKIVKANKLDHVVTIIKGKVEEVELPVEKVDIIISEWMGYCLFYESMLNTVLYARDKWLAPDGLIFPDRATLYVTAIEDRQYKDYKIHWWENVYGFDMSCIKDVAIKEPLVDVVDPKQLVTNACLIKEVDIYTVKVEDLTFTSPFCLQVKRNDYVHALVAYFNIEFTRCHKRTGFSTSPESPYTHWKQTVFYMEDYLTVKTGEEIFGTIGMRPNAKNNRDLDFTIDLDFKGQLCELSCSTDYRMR
Sequence of Protein arginine N-methyltransferase 6 (Homo sapiens, UniProt Q96LA8, L267E) (Q96LA8 whole entry L267E): as the sequence (Q96LA8 whole entry) above, with L267E counted along it

On to `CCNC(=O)[C@@H](C)N`, for which the IC50 in [1] was 105 µM; in test [2], more than 200 µM; in test [3] it was more than 1000 µM; in test [4], more than 1000 µM; in test [5], 105 µM; in test [6], “Not Active”. Further, the IC50 result was “Not Active” in [7] and more than 200 µM in test [8].

Molecule `CNCc1cccc(-c2cccnc2)c1` gave a half-maximal inhibitory concentration (IC50) in test [2] of 104 µM.

`CNCCN(C)C`: the IC50 in test [1] is 3 µM; in test [2], 5 µM; in test [4], 35 µM; in [5] it was 3 µM; in test [6], “Not Active”; in test [7], “Not Active”. In test [8], this molecule registered an IC50 of 7 µM.

Turning to `CNCCN1CCC(c2ccc3[nH]c(-c4ccccc4OC)c(Cl)c3c2)CC1`, the inhibition result in test [9] was “Active”.

In the case of `C[C@@H](N)C(=O)NCc1cccc(-n2nc(C(F)(F)F)cc2-c2nnc(-c3cccc4[nH]ccc34)o2)c1`, the IC50 in test [10] came to 0.027 µM.

Take `Cc1nc(N)sc1-n1ccc(C(F)(F)F)n1`: in test [2], the half-maximal inhibitory concentration (IC50) turned out to be 46 µM.

With `NCCN1CCC(Cc2ccccc2)CC1`, the IC50 in test [1] is 1 µM; in [2], 0.23 µM; in test [4] it was 19 µM; in test [5], 1 µM; in test [6] it was “Not Active”; in test [7] it was “Not Active”. The IC50 in test [8] is 2.1 µM; in [11], 0.39 µM; in test [12], 21 µM. In test [13], this molecule registered a Kd of 0.97 µM.

On to `Nc1ccc(S(=O)(=O)Nc2nccs2)cc1` [SULFATHIAZOLE], for which the IC50 in test [2] amounted to 430 µM.

Turning to `CNCCN1CCC(C)CC1`, the IC50 in test [1] is 0.2 µM; in test [3], 48 µM; in [4], more than 500 µM; in test [5] it was 0.2 µM; in test [6], “Not Active”; in [7], “Not Active”. In test [8], this molecule came in with an IC50 of 15 µM.

In turn, `CNCc1cccc(-c2ccco2)c1` showed an IC50 in test [2] of 146 µM.
